Key:
Human IBAT = biological target: T1, Human IBAT (Homo sapiens, UniProt Q12908); assay: IBAT (h/m) assay, human IBAT-overexpressing cells, 3H-taurocholic acid uptake; type: cell-based; details: 0.25 μM 3H-taurocholic acid and 5 μM cold taurocholic acid, 20 minutes, highest test concentration 10 μM, read-out: hIBAT IC50
T1 construct: expressed in transfected cells; kept under Puromycin selection
T1 sequence (Q12908 1-348): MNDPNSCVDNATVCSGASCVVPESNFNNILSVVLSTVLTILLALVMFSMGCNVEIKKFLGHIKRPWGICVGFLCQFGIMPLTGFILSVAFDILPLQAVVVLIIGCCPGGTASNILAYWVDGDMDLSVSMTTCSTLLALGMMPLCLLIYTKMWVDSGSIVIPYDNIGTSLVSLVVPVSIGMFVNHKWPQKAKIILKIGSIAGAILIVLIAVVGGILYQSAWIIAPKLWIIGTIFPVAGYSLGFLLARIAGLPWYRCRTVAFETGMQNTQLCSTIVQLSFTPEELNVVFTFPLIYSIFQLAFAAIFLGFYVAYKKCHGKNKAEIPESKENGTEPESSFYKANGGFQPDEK
Description: IBAT (h/m) Assay Protocol
10,000 cells (Human or Mouse IBAT-overexpressing cells) were seeded in 96-wells plate (Corning CLS3809) in 200 μL MEM-alpha medium (Gibco 12571-063) supplemented with 10% FBS (Gibco 10438026) containing Puromycin (Gibco A1113803) (10 μg/mL) and incubated at 37° C. in 5% CO2 for 48 hours. After incubation, media was decanted from the wells and cells were washed two times with 300 μL of basal MEM-alpha medium (FBS-free). After decanting basal MEM-alpha medium each time, plates were tapped against paper towel to ensure maximum removal of residual media. Test inhibitor dilutions (highest test concentration being 10 μM, 3-fold serial dilution, 10 points) prepared in DMSO (Sigma D2650) were added in incubation mix (maintaining 0.2% final DMSO concentration) containing 0.25 μM 3H-taurocholic acid (ARC ART-1368) and 5 μM of cold taurocholic acid (Sigma T4009). 50 μL of incubation mix containing test inhibitors was then added to the wells (in duplicate) and the plates were incubated for 20 minutes in a CO2 incubator at 37° C. After incubation, the reaction was stopped by keeping the plates on ice water mix for 2-3 minutes and then the incubation mix was aspirated completely from the wells. The wells were washed two times with 250 μL of chilled unlabelled 1 mM taurocholic acid dissolved in HEPES (Gibco 15630080)-buffered (10 mM) HBSS (Gibco 14175079) (pH 7.4). The plates were tapped against a paper towel after every wash to ensure maximum removal of blocking buffer.
(§1) 100 μL of MicroScint-20 (PerkinElmer 6013621) was added to the wells and kept overnight at room temperature before reading the plates in TopCount NXT™ Microplate Scintillation and Luminescence Counter from PerkinElmer under 3H Test protocol (set at 120 seconds reading time per well).
(§2) Preparation of Test Compound Dilutions
(§3) All test compounds were provided in powder form at room temperature. 10 mM DMSO stocks of the test compounds were prepared, aliquoted and stored at −20° C. From the 10 mM DMSO stock of the compounds, a 3-fold serial dilution in DMSO was prepared to get a total of 10 dilutions of the test compounds. 0.5 μL of this dilution in DMSO was added to 250 μL of FBS-free basal media containing 3H-taurocholic acid and cold taurocholic acid to prepare the incubation mixture.

Human LBAT = biological target: T2, Human LBAT (Homo sapiens, UniProt Q14973); assay: LBAT (h/m) assay, human LBAT-overexpressing cells, 3H-taurocholic acid uptake; type: cell-based; details: 0.3 μM 3H-taurocholic acid and 7.5 μM cold taurocholic acid, 20 minutes, read-out: hLBAT IC50
T2 construct: expressed in transfected cells; kept under Geneticin selection
T2 sequence (Q14973 1-349): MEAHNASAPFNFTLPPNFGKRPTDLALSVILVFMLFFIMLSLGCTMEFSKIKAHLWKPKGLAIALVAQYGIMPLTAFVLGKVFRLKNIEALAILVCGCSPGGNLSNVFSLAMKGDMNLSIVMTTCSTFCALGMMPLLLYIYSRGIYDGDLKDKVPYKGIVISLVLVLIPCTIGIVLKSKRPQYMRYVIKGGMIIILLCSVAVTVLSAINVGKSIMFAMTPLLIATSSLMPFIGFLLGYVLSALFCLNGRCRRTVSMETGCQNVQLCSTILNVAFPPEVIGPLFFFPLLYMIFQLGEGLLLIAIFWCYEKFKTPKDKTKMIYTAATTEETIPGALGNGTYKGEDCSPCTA
Description: LBAT (h/m) Assay Protocol
20,000 cells (Human or Mouse LBAT-overexpressing cells) were seeded in 96-wells plate (Corning CLS3809) in 100 μL MEM-alpha medium (Gibco 12571-063) supplemented with 10% FBS (Gibco 10438026) containing Geneticin (Gibco 10131-027) (1 mg/mL) and incubated at 37° C. in 5% CO2 for 24 hours. After incubation, media was decanted from the wells and cells were washed two times with 300 μL of basal MEM-alpha medium (FBS-free). After decanting basal MEM-alpha medium each time, plates were tapped against paper towel to ensure maximum removal of residual media.
For human LBAT, incubation mix was prepared by adding test inhibitor dilutions (3-fold serial dilution in DMSO (Sigma D2650), 10 points) in MEM-alpha (without FBS) containing 0.3 μM 3H-taurocholic acid (ARC ART-1368) and 7.5 μM cold taurocholic acid (Sigma T4009) (maintaining 0.2% final DMSO concentration). For mouse LBAT, incubation mix was prepared by adding test inhibitor dilutions (3-fold serial dilution in DMSO, 10 points) in MEM-alpha (without FBS) containing 0.3 μM 3H-taurocholic acid and 25 μM cold taurocholic acid maintaining 0.2% final DMSO concentration).
50 μL of incubation mix containing test inhibitors was then added to the wells (in duplicate) and the plates were incubated for 20 minutes in a CO2 incubator at 37° C. After incubation, the reaction was stopped by keeping the plates on ice water mix for 2-3 minutes and then the incubation mix was aspirated completely from the wells. The wells were washed two times with 250 μL of chilled unlabelled 1 mM taurocholic acid dissolved in HEPES (Gibco 15630080)-buffered (10 mM) HBSS (Gibco 14175079) (pH 7.4). The plates were tapped against a paper towel after every wash to ensure maximum removal of blocking buffer.
as §1, with “well, with normal plate orientation).” for “well).”
as §2, §3

IC50 (Human IBAT) [nM] | IC50 (Human LBAT) [nM] | SMILES
678 | 10 | CCCCC1CN(c2ccc(F)cc2)c2cc(SC)c(OCC3(C(=O)O)CC3)cc2S(=O)(=O)C1 (centres unmarked) [Example 10, 1-(((3-butyl-5-(4-fluorophenyl)-7-(methylthio)-1,1-dioxido-2,3,4,5-tetrahydro-1,5-benzothiazepin-8-yl)oxy)methyl)cyclopropane-1-carboxylic acid]
 | 187 | CCCCC1CN(c2ccccc2)c2cc(SC)c(OCC(O)C(=O)O)cc2S(=O)(=O)C1 (centres unmarked) [Example 28, 3-((3-butyl-7-(methylthio)-1,1-dioxido-5-phenyl-2,3,4,5-tetrahydro-1,5-benzothiazepin-8-yl)oxy)-2-hydroxypropanoic acid]
 | 64 | CCCCC1CN(c2ccccc2)c2cc(SC)c(OCC(OC)C(=O)O)cc2S(=O)(=O)N1C (centres unmarked) [Example 30, 3-((3-butyl-2-methyl-7-(methylthio)-1,1-dioxido-5-phenyl-2,3,4,5-tetrahydro-1,2,5-benzothiadiazepin-8-yl)oxy)-2-methoxypropanoic acid]
167 | 4.5 | CCCCC1CN(c2ccc(F)cc2)c2cc(SC)c(OCC3(C(=O)O)CC3)cc2S(=O)(=O)N1C (centres unmarked) [Example 11, 1-(((3-butyl-5-(4-fluorophenyl)-2-methyl-7-(methylthio)-1,1-dioxido-2,3,4,5-tetrahydro-1,2,5-benzothiadiazepin-8-yl)oxy)methyl)cyclopropane-1-carboxylic acid]
464 | 3.4 | CCCCC1CN(c2ccc(F)cc2)c2cc(SC)c(OCC3(C(=O)O)CC3)cc2S(=O)(=O)N1 (centres unmarked) [Example 16, 1-(((3-butyl-5-(4-fluorophenyl)-7-(methylthio)-1,1-dioxido-2,3,4,5-tetrahydro-1,2,5-benzothiadiazepin-8-yl)oxy)methyl)cyclopropane-1-carboxylic acid]
 | 93 | CCCCC1CN(c2ccccc2)c2cc(SC)c(OCCC(=O)O)cc2S(=O)(=O)C1 (centres unmarked) [Example 25, 3-((3-butyl-7-(methylthio)-1,1-dioxido-5-phenyl-2,3,4,5-tetrahydro-1,5-benzothiazepin-8-yl)oxy)propanoic acid]
460 | 3.3 | CCCCC1CN(c2ccc(F)cc2)c2cc(SCC)c(OCC3(C(=O)O)CC3)cc2S(=O)(=O)N1 (centres unmarked) [Example 18, 1-(((3-butyl-7-(ethylthio)-5-(4-fluorophenyl)-1,1-dioxido-2,3,4,5-tetrahydro-1,2,5-benzothiadiazepin-8-yl)oxy)methyl)cyclopropane-1-carboxylic acid]
259 | 1.1 | CCCCC1CN(c2ccccc2)c2cc(SC)c(OCC(F)(F)C(=O)O)cc2S(=O)(=O)N1C (centres unmarked) [Example 20, 3-((3-butyl-2-methyl-7-(methylthio)-1,1-dioxido-5-phenyl-2,3,4,5-tetrahydro-1,2,5-benzothiadiazepin-8-yl)oxy)-2,2-difluoropropanoic acid]
> 3330 | 4.2 | CCCCC1CN(c2ccccc2)c2cc(SCC)c(OCC3(C(=O)O)CC3)cc2S(=O)(=O)N1 (centres unmarked) [Example 15, 1-(((3-butyl-7-(ethylthio)-1,1-dioxido-5-phenyl-2,3,4,5-tetrahydro-1,2,5-benzothiadiazepin-8-yl)oxy)methyl)cyclopropane-1-carboxylic acid]
2700 | 5.3 | CCCCC1CN(c2ccc(F)cc2)c2cc(SC)c(OCC(C)(C)C(=O)O)cc2S(=O)(=O)C1 (centres unmarked) [Example 9, 3-((3-butyl-5-(4-fluorophenyl)-7-(methylthio)-1,1-dioxido-2,3,4,5-tetrahydro-1,5-benzothiazepin-8-yl)oxy)-2,2-dimethylpropanoic acid]

Continued, compound first:

SMILES | IC50 (Human IBAT) [nM] | IC50 (Human LBAT) [nM]
CCCCC1CN(c2ccccc2)c2cc(SC)c(OCC3(C(=O)O)CC3)cc2S(=O)(=O)N1C (single isomer, unassigned) [4, enantiomer 1] | ≥ 10000 | 673
CCCCC1CN(c2ccccc2)c2cc(SC)c(OCC(OC)C(=O)O)cc2S(=O)(=O)N1C (single isomer, unassigned) [31, stereoisomer 2] | 2090 | 22
CCCCC1CN(c2ccc(F)cc2)c2cc(SCC)c(OCC3(C(=O)O)CC3)cc2S(=O)(=O)N1 (single isomer, unassigned) [19, enantiomer 2] | > 3330 | 106
CCCCC1CN(c2ccccc2)c2cc(SC)c(OCCC(=O)O)cc2S(=O)(=O)C1 (single isomer, unassigned) [26, enantiomer 1] |  | 59
CCCCC1CN(c2ccccc2)c2cc(SC)c(OCC(OC)C(=O)O)cc2S(=O)(=O)N1C (single isomer, unassigned) [31, stereoisomer 1] |  | 5680
CCCCC1CN(c2ccccc2)c2cc(SC)c(OCC(C)(C)C(=O)O)cc2S(=O)(=O)N1C (single isomer, unassigned) [2, enantiomer 1] | ≥ 10000 | 2280
CCCCC1CN(c2ccccc2)c2cc(SC)c(OCC(C)(C)C(=O)O)cc2S(=O)(=O)N1C (centres unmarked) [Example 1, 3-((3-Butyl-2-methyl-7-(methylthio)-1,1-dioxido-5-phenyl-2,3,4,5-tetrahydro-1,2,5-benzothiadiazepin-8-yl)oxy)-2,2-dimethylpropanoic acid] |  | 9.8
CCCCC1CN(c2ccccc2)c2cc(SCC)c(OCC(C)(C)C(=O)O)cc2S(=O)(=O)N1C (single isomer, unassigned) [6, enantiomer 1] |  | 536
CCCCC1CN(c2ccccc2)c2cc(SCC)c(OCC3(C(=O)O)CC3)cc2S(=O)(=O)N1C (single isomer, unassigned) [8, enantiomer 2] | 4970 | 591
CCCCC1CN(c2ccccc2)c2cc(SC)c(OCC(F)(F)C(=O)O)cc2S(=O)(=O)N1C (single isomer, unassigned) [21, enantiomer 1] | > 10000 | > 333
CCCCC1CN(c2ccccc2)c2cc(SC)c(OCC(OC)C(=O)O)cc2S(=O)(=O)N1C (single isomer, unassigned) [32, diastereomer 2] | 4780 | 32
